# According to patent US20230365592A1 (Agios Pharmaceuticals, Inc., priority 2022, published 2023):
# Molecular target: T1, human PAH with the R408W mutation (Homo sapiens, UniProt P00439, R408W)
# T1 construct: expressed in transfected cells
# T1 sequence (P00439 1-452 R408W): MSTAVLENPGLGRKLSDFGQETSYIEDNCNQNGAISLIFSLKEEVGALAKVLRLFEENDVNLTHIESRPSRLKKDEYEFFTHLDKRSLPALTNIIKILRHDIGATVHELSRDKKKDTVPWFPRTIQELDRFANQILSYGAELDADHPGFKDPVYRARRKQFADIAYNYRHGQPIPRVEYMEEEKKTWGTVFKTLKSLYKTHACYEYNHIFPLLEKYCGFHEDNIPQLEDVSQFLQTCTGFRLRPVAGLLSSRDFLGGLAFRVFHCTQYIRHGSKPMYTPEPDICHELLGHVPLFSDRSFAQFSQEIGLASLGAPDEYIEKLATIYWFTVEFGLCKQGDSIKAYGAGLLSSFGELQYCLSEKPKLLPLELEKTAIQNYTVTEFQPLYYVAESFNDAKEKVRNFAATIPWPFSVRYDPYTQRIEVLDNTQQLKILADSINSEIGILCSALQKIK
# Assay: Cell Based Phenylalanine Flux Assay;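 also: after compound treatment, cells received sepiapterin plus isotope-labelled Phenylalanine for 4 hours, then labelled Tyrosine in the medium was quantified, 10-point 2-fold dilution series run in duplicate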
# Settings: A375 cells expressing human R408W PAH; 24 hrs compound incubation; 13C-Tyrosine by LC-MS; average where tested multiple times; read-out: AC50
row,AC50,Compound
1,< 500 nM,"CC(C)(F)c1nnc(C(=O)N2CCc3[nH]cnc3[C@H]2c2cc3c(F)cccn3n2)o1 [Example 1024, (S)-(5-(2-fluoropropan-2-yl)-1,3,4-oxadiazol-2-yl)(4-(4-fluoropyrazolo[1,5-a]pyridin-2-yl)-6,7-dihydro-1H-imidazo[4,5-c]pyridin-5(4H)-yl)methanone]"
2,1000 to 5000 nM,"CC(C)(F)c1nnc(C(=O)N2CCc3[nH]cnc3[C@@H]2c2cc3c(F)cccn3n2)o1 [Example 1025, (R)-(5-(2-fluoropropan-2-yl)-1,3,4-oxadiazol-2-yl)(4-(4-fluoropyrazolo[1,5-a]pyridin-2-yl)-6,7-dihydro-1H-imidazo[4,5-c]pyridin-5(4H)-yl)methanone]"
3,1000 to 5000 nM,"CC(C)(C)c1nnc(C(=O)N2CCc3[nH]cnc3[C@@H]2c2cc3c(F)cccn3n2)o1 [Example 1026, (R)-(5-(tert-butyl)-1,3,4-oxadiazol-2-yl)(4-(4-fluoropyrazolo[1,5-a]pyridin-2-yl)-6,7-dihydro-1H-imidazo[4,5-c]pyridin-5(4H)-yl)methanone]"
4,< 500 nM,"CC(C)(C)c1nnc(C(=O)N2CCc3[nH]cnc3[C@H]2c2cc3c(F)cccn3n2)o1 [Example 1027, (S)-(5-(tert-butyl)-1,3,4-oxadiazol-2-yl)(4-(4-fluoropyrazolo[1,5-a]pyridin-2-yl)-6,7-dihydro-1H-imidazo[4,5-c]pyridin-5(4H)-yl)methanone]"
5,< 500 nM,"O=C(c1nnc(-c2ccccn2)o1)N1CCc2[nH]cnc2[C@H]1c1cc2cccc(C(F)(F)F)n2n1 [Example 1028, (S)-(5-(pyridin-2-yl)-1,3,4-oxadiazol-2-yl)(4-(7-(trifluoromethyl)pyrazolo[1,5-a]pyridin-2-yl)-6,7-dihydro-1H-imidazo[4,5-c]pyridin-5(4H)-yl)methanone]"
6,1000 to 5000 nM,"O=C(c1nnc(-c2ccccn2)o1)N1CCc2[nH]cnc2[C@@H]1c1cc2cccc(C(F)(F)F)n2n1 [Example 1029, (R)-(5-(pyridin-2-yl)-1,3,4-oxadiazol-2-yl)(4-(7-(trifluoromethyl)pyrazolo[1,5-a]pyridin-2-yl)-6,7-dihydro-1H-imidazo[4,5-c]pyridin-5(4H)-yl)methanone]"
7,< 500 nM,"Cn1ccc(-c2nnc(C(=O)N3CCc4[nH]cnc4[C@H]3c3cc4cccc(C(F)(F)F)n4n3)o2)n1 [Example 1030, (S)-(5-(1-methyl-1H-pyrazol-3-yl)-1,3,4-oxadiazol-2-yl)(4-(7-(trifluoromethyl)pyrazolo[1,5-a]pyridin-2-yl)-6,7-dihydro-1H-imidazo[4,5-c]pyridin-5(4H)-yl)methanone]"
8,500 to 1000 nM,"Cn1cnc(-c2nnc(C(=O)N3CCc4[nH]cnc4[C@H]3c3cc4cccc(C(F)(F)F)n4n3)o2)c1 [Example 1032, (S)-(5-(1-methyl-1H-imidazol-4-yl)-1,3,4-oxadiazol-2-yl)(4-(7-(trifluoromethyl)pyrazolo[1,5-a]pyridin-2-yl)-6,7-dihydro-1H-imidazo(4,5-c]pyridin-5(4H)-yl)methanone]"
9,1000 to 5000 nM,"Cn1cnc(-c2nnc(C(=O)N3CCc4[nH]cnc4[C@@H]3c3cc4cccc(C(F)(F)F)n4n3)o2)c1 [Example 1033, (R)-(5-(1-methyl-1H-imidazol-4-yl)-1,3,4-oxadiazol-2-yl)(4-(7-(trifluoromethyl)pyrazolo[1,5-a]pyridin-2-yl)-6,7-dihydro-1H-imidazo[4,5-c]pyridin-5(4H)-yl)methanone]"
10,500 to 1000 nM,"O=C(c1nnc(-c2ncccc2F)o1)N1CCc2[nH]cnc2[C@H]1c1cc2cccc(C(F)(F)F)n2n1 [Example 1034, (S)-(5-(3-fluoropyridin-2-yl)-1,3,4-oxadiazol-2-yl)(4-(7-(trifluoromethyl)pyrazolo[1,5-a]pyridin-2-yl)-6,7-dihydro-1H-imidazo[4,5-c]pyridin-5(4H)-yl)methanone]"
11,> 5000 nM,"O=C(c1nnc(-c2ncccc2F)o1)N1CCc2[nH]cnc2[C@@H]1c1cc2cccc(C(F)(F)F)n2n1 [Example 1035, (R)-(5-(3-fluoropyridin-2-yl)-1,3,4-oxadiazol-2-yl)(4-(7-(trifluoromethyl)pyrazolo[1,5-a]pyridin-2-yl)-6,7-dihydro-1H-imidazo[4,5-c]pyridin-5(4H)-yl)methanone]"
12,500 to 1000 nM,"O=C(c1nnc(-c2ccn(C(F)F)n2)o1)N1CCc2[nH]cnc2[C@H]1c1cc2cccc(C(F)(F)F)n2n1 [Example 1036, (S)-(5-(1-(difluoromethyl)-1H-pyrazol-3-yl)-1,3,4-oxadiazol-2-yl)(4-(7-(trifluoromethyl)pyrazolo[1,5-a]pyridin-2-yl)-6,7-dihydro-1H-imidazo[4,5-c]pyridin-5(4H)-yl)methanone]"
13,> 5000 nM,"O=C(c1nnc(-c2ccn(C(F)F)n2)o1)N1CCc2[nH]cnc2[C@@H]1c1cc2cccc(C(F)(F)F)n2n1 [Example 1037, (R)-(5-(1-(difluoromethyl)-1H-pyrazol-3-yl)-1,3,4-oxadiazol-2-yl)(4-(7-(trifluoromethyl)pyrazolo[1,5-a]pyridin-2-yl)-6,7-dihydro-1H-imidazo[4,5-c]pyridin-5(4H)-yl)methanone]"
14,< 500 nM,"Cc1cccn2nc([C@@H]3c4nc[nH]c4CCN3C(=O)c3nnc(-c4cnn(C5CCC5)c4)o3)cc12 [Example 1038, (S)-(5-(1-cyclobutyl-1H-pyrazol-4-yl)-1,3,4-oxadiazol-2-yl)(4-(4-methylpyrazolo[1,5-a]pyridin-2-yl)-6,7-dihydro-1H-imidazo[4,5-c]pyridin-5(4H)-yl)methanone]"
15,> 5000 nM,"Cc1cccn2nc([C@H]3c4nc[nH]c4CCN3C(=O)c3nnc(-c4cnn(C5CCC5)c4)o3)cc12 [Example 1039, (R)-(5-(1-cyclobutyl-1H-pyrazol-4-yl)-1,3,4-oxadiazol-2-yl)(4-(4-methylpyrazolo[1,5-a]pyridin-2-yl)-6,7-dihydro-1H-imidazo[4,5-c]pyridin-5(4H)-yl)methanone]"
16,500 to 1000 nM,"O=C(c1nnc(-c2cnn(C(F)F)c2)o1)N1CCc2[nH]cnc2[C@H]1c1cc2cccc(C(F)(F)F)n2n1 [Example 1040, (S)-(5-(1-(difluoromethyl)-1H-pyrazol-4-yl)-1,3,4-oxadiazol-2-yl)(4-(7-(trifluoromethyl)pyrazolo[1,5-a]pyridin-2-yl)-6,7-dihydro-1H-imidazo[4,5-c]pyridin-5(4H)-yl)methanone]"
17,> 5000 nM,"O=C(c1nnc(-c2cnn(C(F)F)c2)o1)N1CCc2[nH]cnc2[C@@H]1c1cc2cccc(C(F)(F)F)n2n1 [Example 1041, (R)-(5-(1-(difluoromethyl)-1H-pyrazol-4-yl)-1,3,4-oxadiazol-2-yl)(4-(7-(trifluoromethyl)pyrazolo[1,5-a]pyridin-2-yl)-6,7-dihydro-1H-imidazo[4,5-c]pyridin-5(4H)-yl)methanone]"
18,< 500 nM,"O=C(c1nnc(-c2ccccn2)o1)N1CCc2[nH]cnc2[C@H]1c1cc2cccc(Cl)n2n1 [Example 1042, (S)-(4-(7-chloropyrazolo[1,5-a]pyridin-2-yl)-6,7-dihydro-1H-imidazo[4,5-c]pyridin-5(4H)-yl)(5-(pyridin-2-yl)-1,3,4-oxadiazol-2-yl)methanone]"
19,< 500 nM,"Cn1ncnc1C(=O)N1CCc2[nH]cnc2[C@H]1c1cc2c(C(F)(F)F)cccn2n1 [Example 1044, (S)-(1-methyl-1H-1,2,4-triazol-5-yl)(4-(4-(trifluoromethyl)pyrazolo[1,5-a]pyridin-2-yl)-6,7-dihydro-1H-imidazo[4,5-c]pyridin-5(4H)-yl)methanone]"
20,> 5000 nM,"CC(C)(C)c1nnc(C(=O)N2CCc3[nH]cnc3[C@@H]2c2cc3c(Cl)cccn3n2)o1 [Example 1046, (R)-(5-(tert-butyl)-1,3,4-oxadiazol-2-yl)(4-(4-chloropyrazolo[1,5-a]pyridin-2-yl)-6,7-dihydro-1H-imidazo[4,5-c]pyridin-5(4H)-yl)methanone]"
21,< 500 nM,"CC(C)(C)c1nnc(C(=O)N2CCc3[nH]cnc3[C@H]2c2cc3c(Cl)cccn3n2)o1 [Example 1047, (S)-(5-(tert-butyl)-1,3,4-oxadiazol-2-yl)(4-(4-chloropyrazolo[1,5-a]pyridin-2-yl)-6,7-dihydro-1H-imidazo[4,5-c]pyridin-5(4H)-yl)methanone]"
22,500 to 1000 nM,"Cc1ccn2nc([C@@H]3c4nc[nH]c4CCN3C(=O)c3nc(C(F)F)nn3C)cc2c1 [Example 1049, (S)-(3-(difluoromethyl)-1-methyl-1H-1,2,4-triazol-5-yl)(4-(5-methylpyrazolo[1,5-a]pyridin-2-yl)-6,7-dihydro-1H-imidazo[4,5-c]pyridin-5(4H)-yl)methanone]"
23,> 5000 nM,"Cn1ncnc1C(=O)N1CCc2[nH]cnc2[C@@H]1c1cc2c(Cl)cccn2n1 [Example 1051, (R)-(4-(4-chloropyrazolo[1,5-a]pyridin-2-yl)-6,7-dihydro-1H-imidazo[4,5-c]pyridin-5(4H)-yl)(1-methyl-1H-1,2,4-triazol-5-yl)methanone]"
24,< 500 nM,"Cn1nc(C(F)(F)F)nc1C(=O)N1CCc2[nH]cnc2[C@H]1c1cc2c(Cl)cccn2n1 [Example 1052, (S)-(4-(4-chloropyrazolo[1,5-a]pyridin-2-yl)-6,7-dihydro-1H-imidazo[4,5-c]pyridin-5(4H)-yl)(1-methyl-3-(trifluoromethyl)-1H-1,2,4-triazol-5-yl)methanone]"
25,1000 to 5000 nM,"Cn1nc(C(F)(F)F)nc1C(=O)N1CCc2[nH]cnc2[C@@H]1c1cc2c(Cl)cccn2n1 [Example 1053, (R)-(4-(4-chloropyrazolo[1,5-a]pyridin-2-yl)-6,7-dihydro-1H-imidazo[4,5-c]pyridin-5(4H)-yl)(1-methyl-3-(trifluoromethyl)-1H-1,2,4-triazol-5-yl)methanone]"
